Source: article PMC5029699, “Landscape of activating cancer mutations in FGFR kinases and their differential responses to inhibitors in clinical use” (Oncotarget, 2016)

Columns and labels:
[1] = test system: cell line with introduced FGFR3 V555M mutation; set-up: method as in PMID 26097890; conditions: cell line originally responding to both drugs; cited from earlier work
[2] = test system: JHUEM-2 cancer cell line, FGFR2 mutation corresponding to N540K; set-up: method as in PMID 23908597; conditions: cited from earlier work
[3] = test system: NIH3T3 cells expressing FGFR3 K650E; conditions: K650E NIH3T3 cells vs FGFR3TACC3-fusion cells, in words
Method: (§1) For the cell viability assay in the presence of FGFR inhibitors, NIH3T3 cells transfected with the stated FGFR3 variants were plated in 96-well plates, 1000 cells per well. Twenty-four hours later the cells were treated with various concentrations of kinase inhibitor. Forty-eight hours later, fresh inhibitor was added and the cells incubated for 72 hours. Cell viability was measured through the addition of CellTiter-Glo (Promega) and luminenscence measured with a standard luminometer plate reader. Data were normalised and fitted to a log(inhibitor) vs. response curve (three parameters) with GraphPad Prism.

[4] = test system: NIH3T3 cells expressing FGFR3 N540K; conditions: N540K NIH3T3 cells vs FGFR3TACC3-fusion cells, in words
Method: as §1

[5] = test system: NIH3T3 cells expressing FGFR3TACC3-fusion (WT KD); conditions: AZD4547 compared with JNJ42756493
Method: as §1

[6] = test system: cancer cell lines with the FGFR3 S249C substitution; conditions: some cancer cell lines with FGFR3 S249C; cited from earlier work

Compound | drug effect following introduction of FGFR3 V555M mutation [1] | drug response due to mutation corresponding to N540K in FGFR2 [2] | effect of variant on inhibitor efficacy in cells [3] | effect of variant on inhibitor efficacy in cells [4] | difference between AZD4547 and JNJ42756493 cellular IC50s [5] | viability and proliferation of cancer cell lines [6]
CCN(CC)CCCCNc1ncc2cc(-c3cc(OC)cc(OC)c3)c(NC(=O)NC(C)(C)C)nc2n1 [PD173074] | loss of efficacy | reduced sensitivity | – | – | – | –
AZD4547 | – | – | reduce efficacy | reduce efficacy | 2-3 fold | compromised
